Experimental data published in ChEMBL document CHEMBL1141331, “Citromycetins and bilains A-C: new aromatic polyketides and diketopiperazines from Australian marine-derived and terrestrial Penicillium spp” (2007).

Test: Cytotoxicity against mouse NS1 cells
Assay type: functional

| SMILES | LD99 |
| --- | --- |
| CS[C@@H]1C(=O)N(C)[C@](Cc2ccc(OCC=C(C)C)cc2)(SC)C(=O)N1C (relative stereo) | 0.15 µM |
| Cc1cc(=O)c2c(o1)-c1cc(O)c(O)cc1OC2 [CITROMYCIN] | 0.1 µM |
| C[C@@H]1CC(=O)C2=C(O1)c1cc(O)c(O)cc1OC2 | 0.05 µM |
